Laboratory results from the supplement of paper PMC9663587.

How the values were obtained:
[1] = compound: COc1ccc2c(c1)[C@]1(C[C@H]1c1ccc3c(/C=C/c4ccc(CN5C[C@@H](C)O[C@@H](C)C5)cc4)n[nH]c3c1)C(=O)N2
BVD523 = compound: CC(C)Nc1cc(-c2c[nH]c(C(=O)N[C@H](CO)c3cccc(Cl)c3)c2)c(Cl)cn1 [BVD523]
Rucaparib = compound: CNCc1ccc(-c2[nH]c3cc(F)cc4c3c2CCNC4=O)cc1 [Rucaparib]
THZ1 [2] = compound: T1, CN(C)C/C=C/C(=O)Nc1ccc(C(=O)Nc2cccc(Nc3ncc(Cl)c(-c4c[nH]c5ccccc45)n3)c2)cc1 [THZ1]
THZ531 [3] = compound: T2, CN(C)C/C=C/C(=O)Nc1ccc(C(=O)N2CCC[C@@H](Nc3ncc(Cl)c(-c4c[nH]c5ccccc45)n3)C2)cc1 [THZ531]
Alpelisib/BYL719 = compound: Cc1nc(NC(=O)N2CCC[C@H]2C(N)=O)sc1-c1ccnc(C(C)(C)C(F)(F)F)c1 [Alpelisib/BYL719]
Saracatinib/AZD0530 = compound: CN1CCN(CCOc2cc(OC3CCOCC3)c3c(Nc4c(Cl)ccc5c4OCO5)ncnc3c2)CC1 [Saracatinib/AZD0530]
[4] = compound: CC(=O)Nc1cccc(-n2c(=O)n(C3CC3)c(=O)c3c(Nc4ccc(I)cc4F)n(C)c(=O)c(C)c32)c1
AZD1775 = compound: C=CCn1c(=O)c2cnc(Nc3ccc(N4CCN(C)CC4)cc3)nc2n1-c1cccc(C(C)(C)O)n1 [AZD1775]
[5] = compound: CO[C@@H](C)Cn1c(=O)n(C)c2cnc3ccc(-c4cncc(C(C)(C)O)c4)cc3c21
[6] = compound: CC(=O)c1c(C)c2cnc(Nc3ccc(N4CCNCC4)cn3)nc2n(C2CCCC2)c1=O; experiment: increase in dead-cell fraction, 72 h; higher = more death;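 further: breast cancer cell lines in 384-well plates, stained with Hoechst plus LIVE/DEAD far red dye and imaged, cells above an LDR intensity threshold counted dead, Hoechst-negative corpses included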
Neratinib/HKI272 = compound: CCOc1cc2ncc(C#N)c(Nc3ccc(OCc4ccccn4)c(Cl)c3)c2cc1NC(=O)/C=C/CN(C)C [Neratinib/HKI272]; experiment: as above
THZ1 [7] = compound: T1, THZ1; experiment: as above
THZ531 [8] = compound: T2, THZ531; experiment: as above
LEE011/Ribociclib = compound: CN(C)C(=O)c1cc2cnc(Nc3ccc(N4CCNCC4)cn3)nc2n1C1CCCC1 [LEE011/Ribociclib]; experiment: as above
[9] = compound: CCc1cnn2c(NCc3ccc[n+]([O-])c3)cc(N3CCCC[C@H]3CCO)nc12; experiment: as above
BSJ-03-123 = compound: CC(=O)c1c(C)c2cnc(Nc3ccc(N4CCN(CCOCCOCCOCCNC(=O)COc5cccc6c5C(=O)N(C5CCC(=O)NC5=O)C6=O)CC4)cn3)nc2n(C2CCCC2)c1=O [BSJ-03-123]; experiment: as above
YKL-5-124 = compound: C=CC(=O)Nc1ccc(C(=O)Nc2[nH]nc3c2CN(C(=O)N[C@H](CN(C)C)c2ccccc2)C3(C)C)cc1 [YKL-5-124]; experiment: as above
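Wherever GR50, 72 h is given: breast cancer and non-malignant breast epithelial cell lines, Deep Dye Drop or Dye Drop imaging, nine half-log doses, GR normalized to time-zero plates and DMSO-only controls.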

HCC1187
GR50, 72 h [1]: 0.00763 µM
GR50, 72 h (BVD523): > 10 µM
GR50, 72 h (Rucaparib): > 10 µM
GR50, 72 h (THZ1 [2]): 0.0149 µM
GR50, 72 h (THZ531 [3]): 0.0529 µM
GR50, 72 h (Alpelisib/BYL719): > 10 µM
GR50, 72 h (Saracatinib/AZD0530): 0.258 µM
GR50, 72 h [4]: > 1 µM
GR50, 72 h (AZD1775): 0.0228 µM
GR50, 72 h [5]: 1.12 µM
increase in dead-cell fraction ([6]; 0.0003162 µM): -0.0075
increase in dead-cell fraction ([6]; 0.001 µM): 0.0038
increase in dead-cell fraction ([6]; 0.003162 µM): 0.0189
increase in dead-cell fraction ([6]; 0.01 µM): 0.0048
increase in dead-cell fraction ([6]; 0.03162 µM): -0.0042
increase in dead-cell fraction ([6]; 0.1 µM): -0.001
increase in dead-cell fraction ([6]; 0.3162 µM): -0.0035
increase in dead-cell fraction ([6]; 1 µM): 0.0145
increase in dead-cell fraction ([6]; 3.162 µM): 0.0042
increase in dead-cell fraction (Neratinib/HKI272; 0.0003162 µM): -0.0132
increase in dead-cell fraction (Neratinib/HKI272; 0.001 µM): 0.0086
increase in dead-cell fraction (Neratinib/HKI272; 0.003162 µM): -0.0045
increase in dead-cell fraction (Neratinib/HKI272; 0.01 µM): -0.0058
increase in dead-cell fraction (Neratinib/HKI272; 0.03162 µM): -0.0052
increase in dead-cell fraction (Neratinib/HKI272; 0.1 µM): -0.002
increase in dead-cell fraction (Neratinib/HKI272; 0.3162 µM): 0.0006
increase in dead-cell fraction (Neratinib/HKI272; 1 µM): 0.0155
increase in dead-cell fraction (Neratinib/HKI272; 3.162 µM): 0.0076
increase in dead-cell fraction (THZ1 [7]; 0.0001 µM): -0.0047
increase in dead-cell fraction (THZ1 [7]; 0.0003162 µM): -0.0081
increase in dead-cell fraction (THZ1 [7]; 0.001 µM): 0.0016
increase in dead-cell fraction (THZ1 [7]; 0.003162 µM): 0.019
increase in dead-cell fraction (THZ1 [7]; 0.01 µM): 0.0061
increase in dead-cell fraction (THZ1 [7]; 0.03162 µM): 0.113
increase in dead-cell fraction (THZ1 [7]; 0.1 µM): 0.421
increase in dead-cell fraction (THZ1 [7]; 0.3162 µM): 0.568
increase in dead-cell fraction (THZ1 [7]; 1 µM): 0.624
increase in dead-cell fraction (THZ531 [8]; 0.0001 µM): 0.0118
increase in dead-cell fraction (THZ531 [8]; 0.0003162 µM): -0.0088
increase in dead-cell fraction (THZ531 [8]; 0.001 µM): -0.0009
increase in dead-cell fraction (THZ531 [8]; 0.003162 µM): -0.0126
increase in dead-cell fraction (THZ531 [8]; 0.01 µM): -0.0087
increase in dead-cell fraction (THZ531 [8]; 0.03162 µM): -0.0107
increase in dead-cell fraction (THZ531 [8]; 0.1 µM): 0.36
increase in dead-cell fraction (THZ531 [8]; 0.3162 µM): 0.611
increase in dead-cell fraction (LEE011/Ribociclib; 0.001 µM): -0.0158
increase in dead-cell fraction (LEE011/Ribociclib; 0.003162 µM): 0.0194
increase in dead-cell fraction (LEE011/Ribociclib; 0.01 µM): 0.0202
increase in dead-cell fraction (LEE011/Ribociclib; 0.03162 µM): 0.0086
increase in dead-cell fraction (LEE011/Ribociclib; 0.1 µM): -0.01
increase in dead-cell fraction (LEE011/Ribociclib; 0.3162 µM): 0.0057
increase in dead-cell fraction (LEE011/Ribociclib; 1 µM): 0.0164
increase in dead-cell fraction (LEE011/Ribociclib; 3.162 µM): 0.0124
increase in dead-cell fraction (LEE011/Ribociclib; 10 µM): 0.0129
increase in dead-cell fraction ([9]; 0.0001 µM): 0.0033
increase in dead-cell fraction ([9]; 0.0003162 µM): 0.0035
increase in dead-cell fraction ([9]; 0.001 µM): 0.0039
increase in dead-cell fraction ([9]; 0.003162 µM): 0.0055
increase in dead-cell fraction ([9]; 0.01 µM): 0.0539
increase in dead-cell fraction ([9]; 0.03162 µM): 0.56
increase in dead-cell fraction ([9]; 0.1 µM): 0.662
increase in dead-cell fraction ([9]; 0.3162 µM): 0.668
increase in dead-cell fraction ([9]; 1 µM): 0.598
increase in dead-cell fraction (BSJ-03-123; 0.001 µM): 0.0005
increase in dead-cell fraction (BSJ-03-123; 0.003162 µM): -0.0076
increase in dead-cell fraction (BSJ-03-123; 0.01 µM): -0.0142
increase in dead-cell fraction (BSJ-03-123; 0.03162 µM): -0.0171
increase in dead-cell fraction (BSJ-03-123; 0.1 µM): 0.013
increase in dead-cell fraction (BSJ-03-123; 0.3162 µM): 0.0153
increase in dead-cell fraction (BSJ-03-123; 1 µM): 0.037
increase in dead-cell fraction (BSJ-03-123; 3.162 µM): 0.0469
increase in dead-cell fraction (BSJ-03-123; 10 µM): 0.323
increase in dead-cell fraction (YKL-5-124; 0.001 µM): 0.0446
increase in dead-cell fraction (YKL-5-124; 0.003162 µM): 0.0713
increase in dead-cell fraction (YKL-5-124; 0.01 µM): 0.133
increase in dead-cell fraction (YKL-5-124; 0.03162 µM): 0.0654
increase in dead-cell fraction (YKL-5-124; 0.1 µM): 0.0694
increase in dead-cell fraction (YKL-5-124; 0.3162 µM): 0.0946
increase in dead-cell fraction (YKL-5-124; 1 µM): 0.164
increase in dead-cell fraction (YKL-5-124; 3.162 µM): 0.17
increase in dead-cell fraction (YKL-5-124; 10 µM): 0.406
